Drawing on patent publication US20240327356A1, “PYRIMIDINE BASED RAS MODULATORS AND USES THEREOF” (QUANTA THERAPEUTICS, INC., priority 2021, published 2024), this text covers EC50 and IC50 for 36 molecules.

SMILES strings stand for the structures.

The target of experiment [1] is KRAS^G12D-FMe.RAF1^RBDCRD complex (Homo sapiens, UniProt P01116, G12D). In words: SHG assay: binding to bilayer-tethered KRAS G12D/RAF1 complex. As to conditions: GppNHp-loaded complex on PS bilayer; compound 0.027-40 μM, monitored over 60 min. The method, then:
Compounds suspected to carry intrinsic SHG activity were tested in the presence of an unlabeled KRAS^G12D-FMe.RAF1^RBDCRD complex to monitor binding. PS bilayer was prepared from PS-enriched small unilamellar vesicles (SUVs) purchased from Biodesy, Inc. The concentrated SUVs were diluted in TBS buffer containing 5 mM CaCl2 and incubated on a glass-bottom 384-well Biodesy Delta™ assay plate to allow bilayer formation. Equimolar amounts of GppNHp-loaded KRAS^G12D-FMe and RAF1^RBDCRD were mixed and incubated together on PS bilayer overnight at 4° C. The following day, untethered protein was removed by washing with assay buffer (20 mM Hepes, pH 7.4, […], 1 mM TCEP, 5 μM GppNHp). The SHG signal produced by bilayer-tethered complex was ready using the Biodesy Delta™ platform where each well was pulsed with an 800 nm laser and the resulting second harmonic signal intensity at 400 nm was collected. Compounds were diluted into the same assay buffer and applied to the complex at a final concentration range spanning 0.027 μM-40 μM and the SHG intensity of each well was monitored at 5 minute intervals over a 60 minute time period.

Experiment [2] relates to Phospho-ERK (Thr202/Tyr204) in MiaPaCa-2 cells. In words: pERK inhibition in MiaPaca-2 cell line (HTRF). It is filed as cell-based. The following applies: Homo sapiens, MIA PaCa-2, 1 hour incubation with compound. The method, then:
MiaPaCa-2 cells (ATCC CRL-1420) were cultured in high glucose DMEM (Gibco 11965092) containing 10% fetal bovine serum (Gibco 1993708) and 1× Penicillin/Streptomycin, at 37° C. in a humid atmosphere of 5% CO2 in the air. Cells were plated in tissue-culture treated 96-well plates at a density of 10,000 cells/well and allowed to attach for 16 hours. The medium was then removed, and diluted compounds were added in a final concentration of 0.5% DMSO. After 1 hour of incubation, cells were lysed by the lysis buffer supplied with the Phospho-ERK (Thr202/Tyr204) cellular HTRF kit (Cisbio 64ERKPEH) and transferred to a 384-well low-volume white plate (PerkinElmer 6008280). The cell lysates were treated with the detection reagents supplied with the HTRF kit for 4 hours at ambient temperature in darkness. Two fluorescence intensities at the wavelengths (665 and 620 nm) were measured by the Envision plate reader (Perkin Elmer), and the data were processed and fitted to a 4-parameter logistic model for IC50 calculation (GraphPad Prism 9).

As a reminder, the EC50 is the concentration that produces a half-maximal response. For orientation: IC50 means the concentration at which inhibition is half-maximal. In experiment [1], `N#CC1(C(=O)NCc2cnc(-c3ccc(Cl)c(C(F)(F)F)c3)nc2N2CCNCC2)CC1` [Compound 54] gave an EC50 of 1 to 10 µM. In experiment [2], the IC50 was 1 to 10 µM.
In experiment [1], `NCC1CCN(c2nc(-c3ccc(Cl)c(C(F)(F)F)c3)ncc2CNC(=O)c2ccccc2)C1` (stereo not drawn) [Compound 9] showed an EC50 of 1 to 10 µM. Further, the IC50 in experiment [2] lay in the range of 10 to 50 µM.
For `CCOC(=O)NCc1cnc(-c2ccc(C)c(Cl)c2)nc1N1CCC(CN)C1` (stereo not drawn) [Compound 118] the same measures were 10 to 50 µM and 1 to 10 µM.
On to `C=C(F)C(=O)NCc1cnc(-c2ccc(C)c(Cl)c2)nc1N1CCC(CN)C1` (stereo not drawn) [Compound 76], for which, in experiment [1], the EC50 fell in the range of 1 to 10 µM. Further, in experiment [2], the IC50 was in the range of 1 to 10 µM.
With `NC[C@@H]1CCCN1c1nc(-c2ccc(Cl)c(C(F)(F)F)c2)ncc1C1=CCNC1` [Compound 31], in experiment [1], the EC50 was below 0.1 µM. The IC50 in experiment [2] was 1 to 10 µM.
For `N[C@H]1CN(c2nc(-c3ccc(Cl)c(C(F)(F)F)c3)ncc2C2=CCNC2)C[C@@H]1O` [Compound 61], in that order: 1 to 10 µM and 1 to 10 µM.
For `N#CC1(C(=O)NCc2cnc(-c3ccc(Cl)c(C(F)(F)F)c3)nc2OCCN)CC1` [Compound 46], in that order: 1 to 10 µM and 1 to 10 µM.
For `C=C(C)C(=O)NCc1cnc(-c2ccc(C)c(Cl)c2)nc1N1CCC(CN)C1` (stereo not drawn) [Compound 88], in that order: 1 to 10 µM and 1 to 10 µM.
In experiment [1], `N#CC1(C(=O)NCc2cnc(-c3ccc(Cl)c(C(F)(F)F)c3)nc2N2CCOC(CN)C2)CC1` (stereo not drawn) [Compound 51] gave an EC50 of 1 to 10 µM. Also, in experiment [2], the IC50 was 1 to 10 µM.
For `Cc1ccc(-c2ncc(CNC(=O)C3(F)CC3)c(N3CC(CN)C3)n2)cc1Cl` [Compound 101], the EC50 in experiment [1] lay within 10 to 50 µM. Also, the IC50 in experiment [2] lay within 1 to 10 µM.
As to `NCC1CCN(c2nc(-c3ccc(C(F)(F)F)cc3F)ncc2C2CCNC2)C1` (stereo not drawn) [Compound 17, [1-[2-[2-fluoro-4-(trifluoromethyl)phenyl]-5-pyrrolidin-3-yl-pyrimidin-4-yl]pyrrolidin-3-yl]methanamine], in experiment [1], the EC50 lay in the range of 1 to 10 µM. Further, the IC50 in experiment [2] was 1 to 10 µM.
The molecule `Cc1ccc(-c2ncc(CNC(=O)C3(F)CC3)c(OC3CCN(C)C3)n2)cc1Cl` (stereo not drawn) [Compound 89] displayed an EC50 in experiment [1] of 10 to 50 µM. In experiment [2], the IC50 lay within 1 to 10 µM.
For `N#CC1(C(=O)NCc2cnc(-c3ccc(C(F)(F)F)cc3F)nc2N2CCC(CN)C2)CC1` (stereo not drawn) [Compound 28] the same measures were 10 to 50 µM and 1 to 10 µM.
For `NCC1CCN(c2nc(-c3ccc(Cl)cc3NC(=O)C3(F)CC3)ncc2C2=CCNC2)C1` (stereo not drawn) [Compound 23], in that order: 1 to 10 µM and 1 to 10 µM.
For `COC(=O)NCc1cnc(-c2ccc(C)c(Cl)c2)nc1N1CCC(CN)C1` (stereo not drawn) [Compound 60], in that order: 1 to 10 µM and 1 to 10 µM.
Molecule `NCC1CCN(c2nc(-c3ccc(Cl)c(C(F)(F)F)c3)ncc2CNCCO)C1` (stereo not drawn) [Compound 49, 2-[[4-[3-(aminomethyl)pyrrolidin-1-yl]-2-[4-chloro-3-(trifluoromethyl)phenyl]pyrimidin-5-yl]methylamino]ethanol] had an EC50 in experiment [1] of 1 to 10 µM. In addition, in experiment [2], the concentration for half-maximal inhibition (IC50) was 1 to 10 µM.
The molecule `NCC1CCN(c2nc(-c3ccc(C(F)(F)F)cc3F)ncc2CNC(=O)C2(CN)CC2)C1` (stereo not drawn) [Compound 25] returned an EC50 in experiment [1] of 1 to 10 µM. Moreover, the IC50 in experiment [2] lay within 10 to 50 µM.
For `Cc1ccc(-c2ncc(CN3CCOC3=O)c(N3CCC(CN)C3)n2)cc1Cl` (stereo not drawn) [Compound 121, 3-[[4-[3-(aminomethyl)pyrrolidin-1-yl]-2-(3-chloro-4-methyl-phenyl)pyrimidin-5-yl]methyl]oxazolidin-2-one] the same measures were 1 to 10 µM and 1 to 10 µM.
For `NCC1CCN(c2nc(-c3ccc(C(F)(F)F)c(Cl)c3)ncc2N2CCNC2=O)C1` (stereo not drawn) [Compound 109, 1-[4-[3-(aminomethyl)pyrrolidin-1-yl]-2-[3-chloro-4-(trifluoromethyl)phenyl]pyrimidin-5-yl]imidazolidin-2-one] the same measures were 1 to 10 µM and 1 to 10 µM.
For `NCC1CCN(c2nc(-c3ccc(Cl)c(Cl)c3)ncc2C2=CCNC2)C1` (stereo not drawn) [Compound 10] the same measures were 1 to 10 µM and 1 to 10 µM.
With `Cc1ccc(-c2ncc(NC(=O)C3(C#N)CC3)c(N3CCC(CN)C3)n2)cc1Cl` (stereo not drawn) [Compound 110], the EC50 in experiment [1] lay within 10 to 50 µM. Moreover, the IC50 in experiment [2] lay within 1 to 10 µM.
In experiment [1], `N#CC1(C(=O)NCc2cnc(-c3ccc(Cl)c(C(F)(F)F)c3)nc2C2=CCC(N)CC2)CC1` (stereo not drawn) [Compound 58, N-[[4-(4-aminocyclohexen-1-yl)-2-[4-chloro-3-(trifluoromethyl)phenyl]pyrimidin-5-yl]methyl]-1-cyano-cyclopropanecarboxamide] displayed an EC50 of 1 to 10 µM. Besides, in experiment [2], the IC50 lay in the range of 1 to 10 µM.
`NC[C@@H]1CCN(c2nc(-c3ccc(Cl)c(C(F)(F)F)c3)ncc2C2CC2)C1` [Compound 14] showed an EC50 in experiment [1] of 1 to 10 µM. For the same molecule, in experiment [2], the IC50 fell in the range of 10 to 50 µM.
On to `N#CC1(C(=O)NCc2cnc(-c3ccc(Cl)c(C(F)(F)F)c3)nc2N2CCC(N)CC2)CC1` [Compound 48], for which, in experiment [1], the EC50 was in the range of 1 to 10 µM. The IC50 in experiment [2] lay within 1 to 10 µM.
In experiment [1], `Cc1ccc(-c2ncc(CNC(=O)C3(C#N)CC3)c(N3CC[C@H](N)C3)n2)cc1Cl` [Compound 65] showed an EC50 of 1 to 10 µM. Besides, the IC50 in experiment [2] lay in the range of 0.1 to 1 µM.
In turn, `N[C@@H]1CN(c2nc(-c3ccc(Cl)cc3NC(=O)C3CC3)ncc2C2=CCNC2)C[C@H]1O` [Compound 43] registered an EC50 in experiment [1] of 10 to 50 µM. Moreover, the IC50 in experiment [2] was 10 to 50 µM.
`N#Cc1cc(-c2ncc(CNc3ccccc3)c(N3CCC(CN)C3)n2)ccc1C(F)(F)F` (stereo not drawn) [Compound 45, 5-[4-[3-(aminomethyl)pyrrolidin-1-yl]-5-(anilinomethyl)pyrimidin-2-yl]-2-(trifluoromethyl)benzonitrile] had an EC50 in experiment [1] of 1 to 10 µM. Also, in experiment [2], the IC50 was 1 to 10 µM.
Consider `NC[C@H]1CCCN1c1nc(-c2ccc(Cl)c(C(F)(F)F)c2)ncc1C1=CCNC1` [Compound 33], for which the EC50 in experiment [1] was 1 to 10 µM. Besides, the IC50 in experiment [2] was 1 to 10 µM.
As to `Cc1ccc(-c2ncc(CN3CCCC3=O)c(N3CCC(CN)C3)n2)cc1Cl` (stereo not drawn) [Compound 122], the EC50 in experiment [1] is 1 to 10 µM. In experiment [2], the IC50 was in the range of 1 to 10 µM.
`Cc1ccc(-c2ncc(CN3CCNC3=O)c(N3CCC(CN)C3)n2)cc1Cl` (stereo not drawn) [Compound 119] had an EC50 in experiment [1] of 1 to 10 µM. In addition, in experiment [2], the IC50 was 1 to 10 µM.
Consider `Cc1ccc(-c2ncc(CN(C)C(=O)C3(F)CC3)c(N3CCNCC3)n2)cc1Cl` [Compound 98], for which the EC50 in experiment [1] lay within 1 to 10 µM. Also, the IC50 in experiment [2] lay within 1 to 10 µM.
Molecule `Cc1ccc(-c2ncc(CNC(=O)C3(C#N)CC3)c(C3=CCC(N)CC3)n2)cc1Cl` (stereo not drawn) [Compound 77] showed an EC50 in experiment [1] of 1 to 10 µM. In experiment [2], the IC50 was in the range of 1 to 10 µM.
In the case of `N#CC1(C(=O)NCc2cnc(-c3ccc(Cl)c(C(F)(F)F)c3)nc2N2CCC[C@@H]2CN)CC1` [Compound 66], the EC50 in experiment [1] was 1 to 10 µM. The IC50 in experiment [2] was in the range of 1 to 10 µM.
As to `N#CC1(C(=O)NCc2cnc(-c3ccc(Cl)c(C(F)(F)F)c3)nc2OCCCN)CC1` [Compound 74], the EC50 in experiment [1] lay in the range of 1 to 10 µM. The IC50 in experiment [2] was 1 to 10 µM.
`Cc1ccc(-c2ncc(OCC(=O)NC3CC3)c(N3CCC(CN)C3)n2)cc1Cl` (stereo not drawn) [Compound 126]: the concentration giving a half-maximal response (EC50) in experiment [1] is 1 to 10 µM. For the same molecule, the IC50 in experiment [2] was 1 to 10 µM.
On to `N#CC1(C(=O)NCc2cnc(-c3ccc(Cl)c(C(F)(F)F)c3)nc2OC2CCNC2)CC1` (stereo not drawn) [Compound 38], for which the EC50 in experiment [1] was in the range of 10 to 50 µM. The IC50 in experiment [2] was in the range of 1 to 10 µM.
